In brackets after ≈: the same amount, converted by molar mass. Where two headings read alike, the source gives them in different places. Non-standard residues stand in square brackets, D forms with d. Residues, ends and D or L forms follow the SMILES beside them.
What was measured:
[1] = tested on: red blood cells; type: cell-based, rat
Experimental: Further, the hemolytic activity of the antimicrobial peptides was tested. EDTA-treated rat whole blood was centrifuged at 840×g for 3 minutes at 4° C. to separate blood cells and plasma. The plasma was removed, and the blood cells were washed three times with PBS having the same volume as the original blood volume by gently turning the centrifuge tube upside down. After washing, ten microliters of blood cells were diluted in PBS 2000 times to count the cells. Finally, red blood cells were diluted to 5×10^8 cells/mL in PBS. Peptides were dissolved in water and filtered through a 0.2-μm filter to make a stock solution. The peptide concentration was quantitated by UV280. The peptide solution was diluted in PBS to different concentrations (5 times of tested concentration). Twenty microliters of peptide in PBS were mixed with 80 μL of red blood cell solution in a 96-well plate (V-bottom). […] The concentration of heme contained in each well was measured by UV405 using Infinite M1000 pro (Tecan). The hemolytic activity was calculated using the following formula: Hemolytic activity=[(F−F0)/(Ft−F0)]×100% • F is UV405 of the peptide-treated sample; • F0 is UV405 of sample without peptide (negative control); • Ft is UV405 of the Triton-treated sample (positive control).

[2] = tested on: Candida albicans SC5314
[3] = tested on: Candida albicans 12-99 (fluconazole-resistant)
[4] = tested on: Candida albicans 89 (echinocandin-resistant)
[5] = tested on: Cryptococcus neoformans H99
[6] = tested on: Cryptococcus neoformans T1 (fluconazole-resistant)
[7] = tested on: Cryptococcus neoformans 89-610 (fluconazole-resistant)
[8] = tested on: Cryptococcus deuterogattii R265
[9] = tested on: Cryptococcus gattii WM276
[10] = tested on: Acinetobacter baumannii ATCC 17978
[11] = tested on: Klebsiella pneumonia NTUH-K2044
[12] = tested on: Staphylococcus aureus BCRC 10777
[13] = tested on: Staphylococcus epidermidis ATCC 14990
[14] = tested on: Pseudomonas aeruginosa ATCC 9027; details: ATCC 9027
[15] = tested on: Salmonella typhimurium NCHU 15721; details: murium NCHU 15721
[16] = tested on: Xanthomonas campestris pv. campestris strain Xcc17; experiment: IC50 of bacterial growth (OD600) in rich liquid medium; type: cell-based; details: Xcc Xcc17, 24 h, purified peptides
Experimental: (§1) To measure the antimicrobial activity, single colony grown on an optimal rich agar medium for each bacterium was picked and grew in 3 mL of the same rich liquid medium for 4 to 6 h. The bacterial culture was then diluted in the same medium to give a final concentration of OD600=0.08 and then further diluted […] in the same medium. In each well of a 96-well polystyrene plate, 90 μL of the diluted culture was mixed with 10 μL of the peptide to give a peptide concentration of 0, 2, 10, and 20 μg/mL (final cell concentration is 5×10^5 CFU/mL). OD600 was measured after incubation at an optimal temperature for 24 h. IC50 was determined as the lowest peptide concentration inhibiting 50% of bacterial growth.

[17] = tested on: Xanthomonas euvesicatoria strain Xvt28; experiment: as above; type: cell-based; details: Xev Xvt28, 24 h, purified peptides
Experimental: as §1

[18] = tested on: Eco DH5α; experiment: MIC and MBC by serial dilution in 96-well plate; type: cell-based, Escherichia coli; details: Table 7
Experimental: (§2) The effect of peptide length on the antimicrobial activity was investigated by deciding the minimal inhibitory concentration (MIC) and minimal bactericidal concentration (MBC) for each peptide against the pathogen with the media and growth conditions of phytopathogenic bacteria and E. coli as described in Table 1. Single bacterial colony grown on an optimal rich agar medium was picked, and each grew in 3 mL of the same rich liquid medium for 4 to 6 h.
(§3) For experiments carried out in the rich medium, the bacterial broth culture was then diluted in the same medium to give a final concentration of OD600=0.08, and then further diluted 100 folds in the same medium.
(§4) For experiments carried out in the minimal medium, the bacterial cells were collected from the bacterial liquid culture by centrifugation, re-suspended in an optimal minimal medium to give a final concentration of OD600=0.08, and then further diluted 100 folds in the same minimal medium.
(§5) Fifty microliters of serially diluted peptides (2-fold the final concentration) were added in a 96-well polystyrene plate with 50 μL of the bacterial culture. The final concentrations of peptides were 0, 2, 4, 8, 16 and 32 μg/mL. The plates were incubated at an optimal temperature without shaking.
(§6) MBC was determined as the lowest peptide concentration at which no colonies formed.

[19] = tested on: Xanthomonas campestris pv. campestris strain Xcc17; experiment: MIC and MBC by serial dilution in 96-well plate; type: cell-based; details: Xcc Xcc17; Table 7
Experimental: as §2, §3, §4, §5, §6

[20] = tested on: Xanthomonas euvesicatoria strain Xvt28; experiment: MIC and MBC by serial dilution in 96-well plate; type: cell-based; details: Xev Xvt28; Table 7
Experimental: as §2, §3, §4, §5, §6

[21] = tested on: Pectobacterium carotovorum subsp. carotovorum; type: cell-based
How it was run: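 Bacteria were grown 4–6 h, set to OD600=0.08 in rich or minimal medium, then diluted 100-fold. This inoculum was mixed 1:1 with 2-fold serial peptide dilutions and incubated static at optimal temperature. MIC was read from growth and MBC taken as the lowest concentration giving no colonies.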

[22] = CD spectra of pepD in liposomes; type: physicochemical; details: CD in water, DOPC, POPE/POPG (1:1, w/w) liposomes
Experimental: 1,2-dioleoyl-sn-glycero-3-phosphocholine (DOPC) is commonly used to mimic mammalian cell membrane. 1-Palmitoyl-2-oleoyl-sn-glycero-3-phosphoglycerol (POPG) has a negatively charged head group. The mixture of 1-palmitoyl-2-oleoyl-sn-glycero-3-phosphoethanolamine (POPE) and POPG is commonly used to mimic the negatively charged membrane surface of bacteria.
For the CD spectra of pepD in lipids, two kinds of liposomes DOPC and POPE/POPG (1:1, w/w) were prepared. DOPC (10 mg/mL) and POPE/POPG (14 mg/mL) were dissolved in chloroform/methanol (9/1, v/v) in a glass tube individually. The solvents were evaporated under the purge of nitrogen gas to form a thin lipid film on the tube surface. The tube was placed in vacuo overnight to completely remove the organic solvent. To rehydrate the lipid film, 400 μL deionized water was added and mixed in an Intelli-Mixer (rocker mode, 60 rpm) for one hour. Then, the water/lipid mixture was frozen in liquid nitrogen and thawed at 45° C. for 5 min. After five freeze-thaw cycles, liposomes were prepared by extruding the mixture through a polycarbonate filter (with 200-nm pore size) using an Avanti Mini-Extruder (Avanti Polar Lipids, USA). Purified pepD was dissolved in water (64 μg/mL) and mixed with an equal volume of the liposome suspension for CD measurement.

[23] = tested on: Escherichia coli strain DH5a; details: DH5a, 24 h
[24] = tested on: Xanthomonas oryzae pv. oryzae strain Xoo28; details: Xoo Xoo28; rich medium, 24 h, purified peptides
[25] = tested on: Xanthomonas oryzae pv. oryzae strain Xoo28; details: Xoo Xoo28; Table 7
[26] = tested on: Agrobacterium tumefaciens strain Atu C58C1; details: Atu C58C1; Table 7
[27] = tested on: Pseudomonas syringae pv. tomato strain DC3000
[28] = tested on: Pseudomonas syringae pv. syringae strain B728a; details: Pss B728a; Table 7

CC(=O)N[C@@H](Cc1c[nH]c2ccccc12)C(=O)N[C@H](CCCCN)C(=O)N[C@H](CCCCN)C(=O)N[C@H](CC(C)C)C(=O)N[C@H](CCCCN)C(=O)N[C@H](CCCCN)C(=O)N[C@H](CC(C)C)C(=O)N[C@H](CC(C)C)C(=O)N[C@H](CCCCN)C(=O)N[C@H](CCCCN)C(=O)N[C@H](CC(C)C)C(=O)N[C@H](CCCCN)C(=O)N[C@H](CCCCN)C(=O)N[C@H](CC(C)C)C(N)=O [pepdD2, Ac-Wkklkkllkklkkl-NH2] (Ac-W[dK][dK][dL][dK][dK][dL][dL][dK][dK][dL][dK][dK][dL]-NH2)
hemolytic activity [1]: very little or non-hemolytic activity | MFC ([2]; SC5314): 32 µg/mL (≈ 17.4 µM) | MIC ([2]; SC5314): 32 µg/mL (≈ 17.4 µM) | MFC [3]: 32 µg/mL (≈ 17.4 µM) | MIC [3]: 16 µg/mL (≈ 8.71 µM) | MFC [4]: 32 µg/mL (≈ 17.4 µM) | MIC [4]: 32 µg/mL (≈ 17.4 µM) | MIC ([5]; Cryptococcus neoformans H99): 4 µg/mL (≈ 2.18 µM) | MFC ([5]; H99): 4 µg/mL (≈ 2.18 µM) | MIC ([6]; Cryptococcus neoformans T1 (fluconazole-resistant)): 2 µg/mL (≈ 1.09 µM) | MFC ([6]; T1 (fluconazole-resistant)): 2 µg/mL (≈ 1.09 µM) | MFC ([7]; 89-610 (fluconazole-resistant)): 2 µg/mL (≈ 1.09 µM) | MIC ([7]; Cryptococcus neoformans 89-610 (fluconazole-resistant)): 2 µg/mL (≈ 1.09 µM) | MFC [8]: 2 µg/mL (≈ 1.09 µM) | MIC ([8]; Cryptococcus deuterogattii R265): 2 µg/mL (≈ 1.09 µM) | MFC [9]: 2 µg/mL (≈ 1.09 µM) | MIC [9]: 2 µg/mL (≈ 1.09 µM) | MBC [10]: 8 µg/mL (≈ 4.36 µM) | MBC [11]: 32 µg/mL (≈ 17.4 µM) | MIC [11]: 32 µg/mL (≈ 17.4 µM) | MBC [12]: 32 µg/mL (≈ 17.4 µM) | MIC [12]: 32 µg/mL (≈ 17.4 µM) | MBC [13]: 32 µg/mL (≈ 17.4 µM) | MIC [13]: 16 µg/mL (≈ 8.71 µM) | MBC [14]: 4 µg/mL (≈ 2.18 µM) | MIC [14]: 4 µg/mL (≈ 2.18 µM) | MBC [15]: 16 µg/mL (≈ 8.71 µM) | MIC [15]: 16 µg/mL (≈ 8.71 µM)

Ac-WKKLKKLLKKLKKLLKKL-NH2 [pepD]
IC50 [16]: 4.0 µg/mL | IC50 [17]: 4.0 µg/mL | MBC [18]: 10.0 µg/mL | MIC [18]: 10.0 µg/mL | MBC [19]: 6.7 µg/mL | MIC [19]: 2.7 µg/mL | MBC [20]: 18.7 µg/mL | MIC [20]: 5.3 µg/mL | MIC [21]: 32.0 µg/mL | MBC ([21]; Pcc, Table 7): — (“—” indicates no antimicrobial activity being detected at the highest peptide concentration (32 μg/mL) tested in this study.) | lipid selectivity [22]: only interacts with negatively charged lipid | IC50 [23]: 10.0 µg/mL | IC50 [24]: 8.0 µg/mL | MIC ([2]; SC5314, 48 h): 16.0 µg/mL | MBC [25]: 4.0 µg/mL | MIC [25]: 4.0 µg/mL | MBC [26]: — (“—” indicates no antimicrobial activity being detected at the highest peptide concentration (32 μg/mL) tested in this study.) | MBC [27]: 24.0 µg/mL | MIC [27]: 16.0 µg/mL | MBC [28]: — (“—” indicates no antimicrobial activity being detected at the highest peptide concentration (32 μg/mL) tested in this study.) | MIC [28]: 32.0 µg/mL
